In test [1] the target is T1, LasR (Pseudomonas aeruginosa, UniProt P25084).
T1 construct: expressed in transfected cells; host or cells: E. coli 5α (DH5α) with pJNL and pPROBE-PrsaL
T1 sequence (P25084 1-239): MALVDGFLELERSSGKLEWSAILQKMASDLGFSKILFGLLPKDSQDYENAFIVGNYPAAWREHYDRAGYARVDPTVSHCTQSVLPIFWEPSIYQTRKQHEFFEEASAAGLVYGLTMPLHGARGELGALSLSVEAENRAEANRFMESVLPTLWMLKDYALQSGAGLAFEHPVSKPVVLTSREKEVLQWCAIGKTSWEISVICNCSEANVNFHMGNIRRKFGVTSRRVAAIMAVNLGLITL
The experiment in a line: cell-based. The conditions noted are these: P. aeruginosa PAO-SC4 (pPROBE-PrsaL); mean ± SEM, n ≥ 3; read-out: EC50 LasR in native host.

In test [2] the target is T2, RhlR (Pseudomonas aeruginosa, UniProt P54292).
T2 sequence (P54292 1-241): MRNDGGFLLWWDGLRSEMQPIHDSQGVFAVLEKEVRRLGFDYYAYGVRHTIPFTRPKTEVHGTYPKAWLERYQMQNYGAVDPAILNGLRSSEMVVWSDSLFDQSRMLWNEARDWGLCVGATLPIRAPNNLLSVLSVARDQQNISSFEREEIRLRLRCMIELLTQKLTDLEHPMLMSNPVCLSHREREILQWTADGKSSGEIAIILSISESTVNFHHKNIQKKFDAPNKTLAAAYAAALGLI
Type of test: cell-based. Conditions: at 1 mM; native P. aeruginosa reporter.

In test [3] the target is T3, QscR (Pseudomonas aeruginosa, UniProt G3XD77).
T3 construct: expressed in transfected cells; host or cells: E. coli 5α (DH5α) with pJNQ and pPROBE-PPA1897
T3 sequence (G3XD77 1-237): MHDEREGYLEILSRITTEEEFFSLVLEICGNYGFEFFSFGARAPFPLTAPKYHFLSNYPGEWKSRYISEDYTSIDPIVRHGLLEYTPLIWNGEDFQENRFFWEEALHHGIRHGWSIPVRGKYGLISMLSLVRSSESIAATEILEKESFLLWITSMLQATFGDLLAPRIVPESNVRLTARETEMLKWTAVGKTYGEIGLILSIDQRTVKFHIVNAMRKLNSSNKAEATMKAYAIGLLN
Briefly: cell-based. Conditions: P. aeruginosa PAO-SC4 (pPROBE-PPA1897); read-out: EC50 QscR in native host.

Test [4] has as its target T4, BtaR1 (Burkholderia thailandensis, UniProt Q2T543).
T4 sequence (Q2T543 1-239): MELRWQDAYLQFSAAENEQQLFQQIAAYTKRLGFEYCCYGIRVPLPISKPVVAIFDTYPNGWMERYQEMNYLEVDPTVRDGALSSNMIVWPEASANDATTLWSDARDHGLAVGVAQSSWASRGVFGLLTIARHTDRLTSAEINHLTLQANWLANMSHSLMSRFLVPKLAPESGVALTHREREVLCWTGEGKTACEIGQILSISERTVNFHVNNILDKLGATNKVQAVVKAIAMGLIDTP
The experiment in a line: cell-based. Set-up: species or system B. thailandensis.

Test [5] has as its target T5, BtaR2 (Burkholderia thailandensis, UniProt Q2T5X2).
T5 sequence (Q2T5X2 1-234): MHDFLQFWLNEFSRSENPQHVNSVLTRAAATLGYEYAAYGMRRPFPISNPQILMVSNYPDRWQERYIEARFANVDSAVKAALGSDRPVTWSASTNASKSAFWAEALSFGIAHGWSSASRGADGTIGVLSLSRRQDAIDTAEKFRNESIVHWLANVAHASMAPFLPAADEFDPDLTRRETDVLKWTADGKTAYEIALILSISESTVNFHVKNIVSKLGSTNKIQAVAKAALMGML
Briefly: cell-based. The arrangement: species or system B. thailandensis.

In test [6] the target is T6, LuxR (Aliivibrio fischeri, UniProt P12746).
T6 construct: endogenous in cells; host or cells: V. fischeri MJ215
T6 sequence (P12746 1-250): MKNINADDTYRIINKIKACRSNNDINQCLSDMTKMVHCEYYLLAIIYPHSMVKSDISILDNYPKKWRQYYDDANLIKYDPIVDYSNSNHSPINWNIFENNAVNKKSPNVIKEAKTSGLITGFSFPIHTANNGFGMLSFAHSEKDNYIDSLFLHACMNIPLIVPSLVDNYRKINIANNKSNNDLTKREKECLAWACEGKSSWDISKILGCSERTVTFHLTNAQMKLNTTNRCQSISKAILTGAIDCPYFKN
Briefly: cell-based. Conditions: V. fischeri MJ215, luminescence; read-out: EC50 LuxR in native host.

The target of test [7] is T7, CviR (Chromobacterium violaceum, UniProt D3W065).
T7 construct: Violacein was used as a measure of CviR activity in C. violaceum (CV026); endogenous in cells; host or cells: C. violaceum CV026
Briefly: cell-based. The conditions noted are these: C. violaceum CV026, violacein; read-out: EC50 CviR in native host.

For test [8], the target named is T1, LasR. The experiment in a line: cell-based. Set-up: species or system P. aeruginosa. Conditions: receptor expressed in E. coli (DH5α), arabinose-induced.
Test [9] deals with T2, RhlR. The experiment in a line: cell-based. Type of test: cell-based, P. aeruginosa. The conditions noted are these: receptor expressed in E. coli (DH5α), arabinose-induced.
The target in test [10] is T3, QscR. The experiment in a line: cell-based. Set-up: species or system P. aeruginosa. The conditions noted are these: receptor expressed in E. coli (DH5α), arabinose-induced.
Test [11] deals with T5, BtaR2. The experiment in a line: cell-based. Set-up: species or system B. thailandensis. This is another data set of the same source.
The target in test [12] is T2, RhlR. Briefly: cell-based. The arrangement: species or system P. aeruginosa. Conditions: rhlR overexpressed via pJNR in PAO-SC4; mean ± SEM, n ≥ 3; read-out: EC50 overexpression (RhlR).

Like-named read-outs stand apart in the source and are kept apart here.

In the case of `CCCC(=O)N[C@H]1CCOC1=O` [C4-HSL, N-butyryl-L-homoserine lactone], the concentration giving a half-maximal response (EC50) – broadly, the concentration needed to bring the measured effect to its halfway point – in [1] is more than 100 µM; in test [3], more than 100 µM; in test [4] it was more than 100 µM; in [5], more than 100 µM; in test [6], more than 100 µM; in [7] it was 14.3 ± 3.8 µM. In addition, the concentration giving a half-maximal response (EC50) in test [8] was more than 100 µM; in test [9], 122 ± 17 µM; in [10], more than 100 µM; in [11], more than 100 µM; in test [12] it was 12 ± 3.1 µM. For the same molecule, the “saturation of RhlR activity” value in test [2] is listed as “not saturated”.

For the origin of these results see article PMC6401477, “Quorum Sensing Signal Selectivity and the Potential for Interspecies Cross Talk” (mBio, 2019).
